Key:
[1] = tested on: carrageenin-induced paw edema; experiment: inhibition of carrageenin-induced paw edema in rat; format: in vivo; conditions: oral, male rats, dose/LD50: SFZ-47 1/15, SFZ-58 1/10, ibuprofen 1/5, indomethacin 1/4; for carrageenin-induced paw edema, 1 hour: N.S. 0.40 ± 0.00; for carrageenin-induced paw edema, 2 hours: N.S. 0.78 ± 0.09; for carrageenin-induced paw edema, 3 hours: N.S. 0.75 ± 0.09; for carrageenin-induced paw edema, 4 hours: N.S. 0.75 ± 0.05; for carrageenin-induced paw edema, 5 hours: N.S. 0.76 ± 0.09
Description: The influence of SFZ-47, 58 on inhibition of Carrageenin-Induced Paw Edema in Rat.
The test agent was administered by oral liquid to male rats of weight 140-180 g. 0.05 ml of 1% carrageenin injected into the pad of the right hind paw 1 hour later. The perimeter of the rat ankles were measured each hour after compound administration.

[2] = tested on: gastric mucosa of rats; experiment: effects on gastric mucosa of rats (ulcer index); format: in vivo, rat; conditions: n = 5, SFZ-47 400 mg/kg, SFZ-58 300 mg/kg, ibuprofen 200 mg/kg, indomethacin 10 mg/kg
Excerpt: Effects of SFZ-47 and SFZ-58 on gastric mucosa of rats

[3] = tested on: mouse writhing induced by acetic acid; experiment: inhibition of acetic acid-induced writhe in mice; format: in vivo; conditions: oral, female mice, dose/LD50: SFZ-47 1/15, SFZ-58 1/10, ibuprofen 1/5, indomethacin 1/4; for Numb. of writhing (x ± SD): 0.7% acetic acid i.p. 1 h later, 20 min observation, N.S. 17.0 ± 6.8; for Rate of inhibition (%): writhing vs normal saline
Description: The influence of SFZ-47, 58 on inhibition of acetic acid-induces writhe.
SFZ-47 and SFZ-58 were suspended in 0.5% carboxymethylcellulose (CMC) and administered per os. to female mice of weight 18-24 g. 1 hour later, 0.2 ml of a 0.7% solution of acetic acid was injected to mouse by intraperironeally. The animals were observed during the next 20 min. for writhe.

[4] = tested on: splanchnic vascular bed; conditions: prior art, in words; cited from earlier work
[5] = tested on: cerebral circulation; conditions: prior art, cited from earlier work

CC(C)Cc1ccc(C(C)C(=O)O)cc1 (stereo not shown) [Ibuprofen]
carrageenin-induced paw edema, 1 hour [1]: 0.29 ± 0.06
carrageenin-induced paw edema, 2 hours [1]: 0.41 ± 0.11
carrageenin-induced paw edema, 3 hours [1]: 0.52 ± 0.00
carrageenin-induced paw edema, 4 hours [1]: 0.51 ± 0.00
carrageenin-induced paw edema, 5 hours [1]: 0.47 ± 0.10
Ulcer index [2]: 13.3 ± 4.2 mm^2
Numb. of writhing (x ± SD) [3]: 4.3 ± 3.9
Rate of inhibition (%) [3]: 75%

COc1ccc2c(c1)c(CC(=O)O)c(C)n2C(=O)c1ccc(Cl)cc1 [Indomethacin]
carrageenin-induced paw edema, 1 hour [1]: 0.21 ± 0.18
carrageenin-induced paw edema, 2 hours [1]: 0.33 ± 0.08
carrageenin-induced paw edema, 3 hours [1]: 0.45 ± 0.08
carrageenin-induced paw edema, 4 hours [1]: 0.43 ± 0.13
carrageenin-induced paw edema, 5 hours [1]: 0.43 ± 0.13
blood flow in the splanchnic vascular bed [4]: diminishes blood flow in the splanchnic vascular bed
Ulcer index [2]: 14.0 ± 6.9 mm^2
cerebral blood flow response to hypercapnia ([5]; in words): abolishing cerebral blood flow response to hypercapnia
decrease of cerebral blood flow [5]: 25-35%
Numb. of writhing (x ± SD) [3]: 2.7 ± 1.5
Rate of inhibition (%) [3]: 84%

— patent US5616604A, “Aminopyrrolizinone analogues for anti-inflammation and analgesia (II)” (priority 1996, dated 1997)
